Patent US7553484B2, “Modulating neuronal outgrowth via the major histocompatibility complex class I (MHC I) molecule” (The Regents of the University of California, priority 2001, dated 2009)
“Also recorded” adds a separate entry of the source.

Tested on: retinal explant neurite outgrowth
Assay: Retina (alone) explant culture with and without recombinant MHC I (rsMHC I)
Format: cell-based, mouse
Conditions: for neurite outgrowth with rsMHC I plus compound compared with control levels / neurite outgrowth in cultures containing rsMHC I, compound added vs rsMHC I alone: ACPD 50 uM, cAMP 20 uM, Forskolin 5 uM; for overall protection against the effects of rsMHC I (summary): FIG. 5; for neurite outgrowth in cultures containing rsMHC I, compound added vs rsMHC I alone: 3 days
Description: To rule out the possibility that the MHC I-tg thalami inhibit retinal growth indirectly due to an alteration in the milieu of neuroactive molecules they secrete, wt retinas were cultured alone, in the presence, or absence of recombinantly produced MHC I D^b (rMHC I). The rMHC I was obtained by transfecting COS cells with a recombinant plasmid that directs the expression of a MHC I D^b lacking a membrane anchor and harvesting the conditioned media.
A truncated MHC I ^Db mini-gene (containing exons 1-4 plus a stop codon) was subcloned into pIRES (Invitrogen). Due to the lack of a transmembrane spanning region (exons 5 and 6), this MHC I molecule is secreted. COS cells were transfected (using lipofectamine, GIBCO) with the parental plasmid, or the plasmid encoding soluble MHC I D^b. […] Forty eight hours later, the conditioned media was harvested and added to fresh explant co-cultures of wt retina and thalamus at final dilutions of 1:1, 1:4, 1:20 or 1:100. To some cultures, monoclonal antibodies to MHCI D^b or D^k were added to both the matrigel (before its solidification) and the media (0.005 mg/ml). Both the conditioned media and the antibodies were coded. The co-cultures were incubated for 4-5 days, fixed, and scored in a blinded fashion as described above. Duplicates of each group were tested simultaneously in 4 separate experiments.
E14 day embryos from C57Bl6 and Balb/c mice were dissected in Leibovitz's L-15 media (Gibco BRL). The retinas were isolated and placed in a matrigel matrix (Growth Factor Reduced Basement membrane matrix, Collaborative Biomedical Products) in a chamber slide (Fisher LabTech). The slides were then incubated at 37° C. for 60 minutes to solidify the gel. Neurobasal medium (Gibco BRL), containing L-glutamine, antibiotics and 1× B27 supplement) was added to each chamber (0.25 ml). Inhibition of axon outgrowth by rsMHC I was tested by addition of conditioned culture media from COS cells containing rsMHC I or control media to the normal culture media. Compounds that modulate cAMP levels were added at the following concentrations to the matrigel and the culture media: Forskolin (5 uM), a drug that activates adenyl cyclase and endogenous production of cAMP; and Rp-cAMPS (20 uM), the R diasteriomer of adenosine 3′,5′-(cyclic) phosphorothioate, a non-hydrolyzable antagonist of cAMP. The cultures were incubated further at 37° C., 5% CO2. After incubating for 3 days, the experiment was terminated by replacing the buffer with 4% PFA and storing the slides at 4° C. Statistical Analysis was done by Student's test.

N[C@@]1(C(=O)O)CC[C@@H](C(=O)O)C1 [ACPD, 1-amino-(1S,3R)-cyclo pentanedicarboxylic acid]
neurite outgrowth with rsMHC I plus compound compared with control levels: did not return to control levels | overall protection against the effects of rsMHC I (summary): partially protective | neurite outgrowth in cultures containing rsMHC I, compound added vs rsMHC I alone (Rp-cAMPS 20 uM): significantly enhanced neurite outgrowth; also recorded: partially neutralize the effects of rsMHC I

Nc1ncnc2c1ncn2[C@@H]1O[C@@H]2CO[P@@](O)(=S)O[C@H]2[C@H]1O [Rp-cAMPS, R diasteriomer of adenosine 3′,5′-(cyclic) phosphorothioate]
overall protection against the effects of rsMHC I (summary): very efficient at blocking the effects of rsMHC I | retinal explant outgrowth in control cultures (media alone, no rsMHC I) (Rp-cAMPS 20 uM): no effect | neurite outgrowth in cultures containing rsMHC I, compound added vs rsMHC I alone (Rp-cAMPS 20 uM): completely prevented the inhibitory effects of rsMHC I; also recorded: can reverse this inhibitory effect | neurite outgrowth in cultures containing rsMHC I, compound added vs rsMHC I alone (Rp-cAMPS 20 uM, listed as Rp-cAMPs): completely prevented the inhibitory effects of rMHC I; also recorded: prevented the inhibitory action of rMHC I

Nc1ncnc2c1ncn2[C@@H]1O[C@@H]2COP(=O)(O)O[C@H]2[C@H]1O [cAMP, cyclic adenosine monophosphate]
neurite outgrowth with rsMHC I plus compound compared with control levels: not statistically different from control levels | overall protection against the effects of rsMHC I (summary): partially protective | neurite outgrowth in cultures containing rsMHC I, compound added vs rsMHC I alone (Rp-cAMPS 20 uM): significantly enhanced neurite outgrowth; also recorded: partially neutralize the inhibitory action of rMHC I
